The NIST ThermoML archive (doi:10.1016/j.jct.2013.01.012)

Key:
[1] = mn = molality of the nth substance listed, in mol/kg; conditions: 101 kPa, Liquid; for speed of sound: Sing-around technique in a fixed-path interferometer; for mass density: Vibrating tube method
[2] = refractive index (Na D-line) (dimensionless); mn = molality of the nth substance listed, in mol/kg; conditions: 101 kPa, Liquid, Standard Abbe refractometry

O=P([O-])([O-])O.[K+].[K+] [dipotassium hydrogen phosphate] + O
Conditions	mass density, 298.15 K [kg/m3]	mass density, 303.15 K [kg/m3]	mass density, 308.15 K [kg/m3]	refractive index, 298.15 K	refractive index, 303.15 K	refractive index, 308.15 K	speed of sound, 298.15 K [m/s]	speed of sound, 303.15 K [m/s]	speed of sound, 308.15 K [m/s]
[1], m1 = 0.1	1016.33	1015.38	1014.18	–	–	–	1512.8	1525.1	1535.6
[1], m1 = 0.3	1041.48	1040.03	1038.39	–	–	–	1542.9	1553.8	1563.4
[1], m1 = 0.5	1072.35	1071.14	1069.06	–	–	–	1574.6	1584.6	1593.3
[1], m1 = 0.7	1103.77	1103.01	1103.01	–	–	–	1607.3	1616.8	1626
[1], m1 = 0.9	1135.65	1136.16	1134.44	–	–	–	1641.6	1651.1	1657.8
[2], m1 = 0.1	–	–	–	1.3354	1.3346	1.334	–	–	–
[2], m1 = 0.3	–	–	–	1.3404	1.3397	1.3392	–	–	–
[2], m1 = 0.5	–	–	–	1.3456	1.3453	1.3445	–	–	–
[2], m1 = 0.7	–	–	–	1.3506	1.35	1.3495	–	–	–
[2], m1 = 0.9	–	–	–	1.3557	1.3554	1.3547	–	–	–

O=P([O-])([O-])O.[Na+].[Na+] [disodium hydrogen phosphate] + O
Conditions	mass density, 298.15 K [kg/m3]	mass density, 303.15 K [kg/m3]	mass density, 308.15 K [kg/m3]	refractive index, 298.15 K	refractive index, 303.15 K	refractive index, 308.15 K	speed of sound, 298.15 K [m/s]	speed of sound, 303.15 K [m/s]	speed of sound, 308.15 K [m/s]
[1], m1 = 0.1	1010.86	1009.51	1008.19	–	–	–	1514.6	1526.5	1537
[1], m1 = 0.3	1038.69	1037	1035.61	–	–	–	1549.5	1560.1	1569.8
[1], m1 = 0.5	1066.76	1069.09	1051.41	–	–	–	1583.5	1598.6	1588.7
[1], m1 = 0.7	1096.95	1095.37	1099.82	–	–	–	1621.3	1630	1646.2
[1], m1 = 0.9	1129.62	1128.52	1162.21	–	–	–	1663.2	1672.3	1685.8
[2], m1 = 0.1	–	–	–	1.3354	1.3347	1.3344	–	–	–
[2], m1 = 0.3	–	–	–	1.3408	1.3404	1.3398	–	–	–
[2], m1 = 0.5	–	–	–	1.3457	1.3456	1.3448	–	–	–
[2], m1 = 0.7	–	–	–	1.3512	1.3507	1.3499	–	–	–
[2], m1 = 0.9	–	–	–	1.3562	1.3557	1.3552	–	–	–

O=P([O-])(O)O.[Li+] [lithium dihydrogen phosphate] + O
Conditions	mass density, 298.15 K [kg/m3]	mass density, 303.15 K [kg/m3]	mass density, 308.15 K [kg/m3]	refractive index, 298.15 K	refractive index, 303.15 K	refractive index, 308.15 K	speed of sound, 298.15 K [m/s]	speed of sound, 303.15 K [m/s]	speed of sound, 308.15 K [m/s]
[1], m1 = 0.1	1004.55	1003.21	1001.59	–	–	–	1506.5	1518.5	1528.8
[1], m1 = 0.3	1018.97	1017.71	1016.05	–	–	–	1525.5	1536.8	1546.5
[1], m1 = 0.5	1033.8	1032.57	1031.29	–	–	–	1544.1	1555	1564.5
[1], m1 = 0.7	1048.96	1048.1	1046.58	–	–	–	1569.2	1573.7	1582.6
[1], m1 = 0.9	1064.91	1063.79	1055.48	–	–	–	1582.6	1593	1593.1
[2], m1 = 0.1	–	–	–	1.3342	1.3332	1.3327	–	–	–
[2], m1 = 0.3	–	–	–	1.3365	1.3363	1.3355	–	–	–
[2], m1 = 0.5	–	–	–	1.3394	1.339	1.3387	–	–	–
[2], m1 = 0.7	–	–	–	1.3421	1.3418	1.3414	–	–	–
[2], m1 = 0.9	–	–	–	1.3452	1.3448	1.3444	–	–	–

O=P([O-])(O)O.[K+] [monopotassium phosphate] + O
Conditions	mass density, [1] [kg/m3]	refractive index, [2]	speed of sound, [1] [m/s]
298.15 K, m1 = 0.1	1007.01	1.3343	1506.5
298.15 K, m1 = 0.3	1026.44	1.3374	1524.5
298.15 K, m1 = 0.5	1046.68	1.3401	1542.1
298.15 K, m1 = 0.7	1066.58	1.3435	–
298.15 K, m1 = 0.9	1088.28	1.3466	1577.6
303.15 K, m1 = 0.1	1005.58	1.3336	1518.4
303.15 K, m1 = 0.3	1025.15	1.3368	1536
303.15 K, m1 = 0.5	1045.29	1.3397	1553.2
303.15 K, m1 = 0.7	1065.65	1.3427	1570.1
303.15 K, m1 = 0.9	1087.42	1.3463	1587.9
308.15 K, m1 = 0.1	1004.16	1.333	1528.8
308.15 K, m1 = 0.3	1023.58	1.3361	1545.8
308.15 K, m1 = 0.5	1044.55	1.3392	1563.1
308.15 K, m1 = 0.7	1065.08	1.3423	1580
308.15 K, m1 = 0.9	1086.5	1.3455	1596.6

O=P(O)(O)O [phosphoric acid] + O
Conditions	mass density, 298.15 K [kg/m3]	mass density, 303.15 K [kg/m3]	mass density, 308.15 K [kg/m3]	refractive index, 298.15 K	refractive index, 303.15 K	refractive index, 308.15 K	speed of sound, 298.15 K [m/s]	speed of sound, 303.15 K [m/s]	speed of sound, 308.15 K [m/s]
[1], m1 = 0.1	1002.05	1000.62	998.962	–	–	–	1497.1	1509.2	1519.7
[1], m1 = 0.3	1011.37	1009.93	1008.27	–	–	–	1498.3	1510.2	1520.4
[1], m1 = 0.5	1021.09	1019.94	1018.07	–	–	–	1500	1511.6	1521.6
[1], m1 = 0.7	1030.49	1029.49	1028.12	–	–	–	1502	1513.2	1523
[1], m1 = 0.9	1040.62	1039.05	1037.8	–	–	–	1504.2	1515.1	1524.6
[2], m1 = 0.1	–	–	–	1.3334	1.3329	1.3323	–	–	–
[2], m1 = 0.3	–	–	–	1.335	1.3345	1.3339	–	–	–
[2], m1 = 0.5	–	–	–	1.3366	1.336	1.3356	–	–	–
[2], m1 = 0.7	–	–	–	1.3381	1.3376	1.3371	–	–	–
[2], m1 = 0.9	–	–	–	1.3397	1.3393	1.3388	–	–	–

O=P([O-])(O)O.[Na+] [sodium dihydrogen phosphate] + O
Conditions	mass density, 298.15 K [kg/m3]	mass density, 303.15 K [kg/m3]	mass density, 308.15 K [kg/m3]	refractive index, 298.15 K	refractive index, 303.15 K	refractive index, 308.15 K	speed of sound, 298.15 K [m/s]	speed of sound, 303.15 K [m/s]	speed of sound, 308.15 K [m/s]
[1], m1 = 0.1	1006.23	1005.17	1004.2	–	–	–	1507.1	1519.2	1529.8
[1], m1 = 0.3	1024.26	1022.91	1021.13	–	–	–	1527.2	1538.5	1548.1
[1], m1 = 0.5	1043.03	1041.67	1039.97	–	–	–	1547.3	1558.2	1567.3
[1], m1 = 0.7	1062.08	1060.86	1060.09	–	–	–	1567.7	1577.8	1587.9
[1], m1 = 0.9	1081.28	1079.48	1080.28	–	–	–	1587.8	1579.2	1608.1
[2], m1 = 0.1	–	–	–	1.3346	1.334	1.3335	–	–	–
[2], m1 = 0.3	–	–	–	1.3381	1.3376	1.3371	–	–	–
[2], m1 = 0.5	–	–	–	1.3408	1.3412	1.3398	–	–	–
[2], m1 = 0.7	–	–	–	1.344	1.3435	1.3428	–	–	–
[2], m1 = 0.9	–	–	–	1.3492	1.3473	1.3466	–	–	–

O=P([O-])([O-])[O-].[K+].[K+].[K+] [tripotassium phosphate] + O
Conditions	mass density, 298.15 K [kg/m3]	mass density, 303.15 K [kg/m3]	mass density, 308.15 K [kg/m3]	refractive index, 298.15 K	refractive index, 303.15 K	refractive index, 308.15 K	speed of sound, 298.15 K [m/s]	speed of sound, 303.15 K [m/s]	speed of sound, 308.15 K [m/s]
[1], m1 = 0.1	1017.14	1015.62	1013.92	–	–	–	1518.2	1529.8	1539.7
[1], m1 = 0.3	1057.82	1056.83	1054.87	–	–	–	1559.7	1570.2	1578.9
[1], m1 = 0.5	1101.23	1100.46	1098.72	–	–	–	1603	1616.1	1622.8
[1], m1 = 0.7	1145.91	1145.57	1144.26	–	–	–	1658.8	1666.7	1671.9
[1], m1 = 0.9	1191.53	1191.62	1190.09	–	–	–	1716.6	1723.7	1725.1
[2], m1 = 0.1	–	–	–	1.3365	1.3357	1.3351	–	–	–
[2], m1 = 0.3	–	–	–	1.344	1.3435	1.3426	–	–	–
[2], m1 = 0.5	–	–	–	1.3517	1.351	1.3502	–	–	–
[2], m1 = 0.7	–	–	–	1.3595	1.3588	1.3581	–	–	–
[2], m1 = 0.9	–	–	–	1.3671	1.3667	1.3659	–	–	–

O=P([O-])([O-])[O-].[Na+].[Na+].[Na+] [trisodium phosphate] + O
Conditions	mass density, 298.15 K [kg/m3]	mass density, 303.15 K [kg/m3]	mass density, 308.15 K [kg/m3]	refractive index, 298.15 K	refractive index, 303.15 K	refractive index, 308.15 K	speed of sound, 298.15 K [m/s]	speed of sound, 303.15 K [m/s]	speed of sound, 308.15 K [m/s]
[1], m1 = 0.1	1015.18	1013.87	1012.26	–	–	–	1519.7	1531.5	1541.8
[1], m1 = 0.3	1052.41	1051.09	1049.48	–	–	–	1563.1	1573.9	1583.5
[1], m1 = 0.5	1091.06	1090.82	1089.21	–	–	–	1608.9	1619.9	1628.3
[1], m1 = 0.7	1130.08	1129.51	1131.08	–	–	–	1658.1	1667.3	1677.7
[1], m1 = 0.9	1173.67	1169.99	1167.45	–	–	–	1716.9	1722.6	1727.6
[2], m1 = 0.1	–	–	–	1.3365	1.3358	1.3353	–	–	–
[2], m1 = 0.3	–	–	–	1.3439	1.3431	1.3425	–	–	–
[2], m1 = 0.5	–	–	–	1.3515	1.3506	1.35	–	–	–
[2], m1 = 0.7	–	–	–	1.3588	1.3581	1.3574	–	–	–
[2], m1 = 0.9	–	–	–	1.3664	1.3671	1.3653	–	–	–
